Experiment [1] concerns PC3 (prostate) cancer cells. Briefly: MTT in vitro cytotoxic activity assay, PC3. Type of experiment: cell-based. The following applies: Homo sapiens; cells exposed for 96 hours; 50% inhibition of cell proliferation; read-out: Cytotoxicity activity IC50, PC3 (prostate). Here is the method:
(§1) Compounds 1-16 were screened for their in vitro cytotoxic activity utilizing a 3-(4,5-dimethyl-thiazol-2-yl)-2,5-diphenyltetrazolium bromide (MTT) assay against selected cancer human cell lines consisting of PC3 (prostate), HCT116 (colon), A375 (melanoma), H1299 (lung), MIAPaCa-2 (pancreas), HL60 (leukemia), MCF7 (breast), MDA-MB-231 (breast) (T. Mosmann, J. Immunol. Meth., 1983, 65, 55-63). The cells were cultured at 37° C. in RMPI1640 medium supplemented with 10% fetal bovine serum, 50 IU/mL penicillin, and 50 μg/mL streptomycin in a 5% CO2 incubator. All cells were sub-cultured 3 times/week by trypsinisation. Viable cells were seeded and allowed to adhere for 12 hours before a test drug was added in 96-well plates at an initial density of 1.0×10^5 cells/mL. Tumor cell lines were separately exposed to various concentrations of the tested compounds followed by incubation at a temperature of 37° C. during 96 hours inside a medium of fresh RMPI 1640. Cells were subsequently incubated at 37° C. using MTT at 0.5 mg/mL during 4 hours. After removal of supernatant, formazan crystals were dissolved in isopropanol and the optical density was measured at 570 nm. CX-4945 was used as a positive control.

Experiment [2] relates to HCT116 (colon) cancer cells. Briefly: MTT in vitro cytotoxic activity assay, HCT116. The experiment is classed as cell-based. The following applies: Homo sapiens, HCT-116; cells exposed for 96 hours; 50% inhibition of cell proliferation; read-out: Cytotoxicity activity IC50, HCT116 (colon). Here is the method:
as §1

For experiment [3], the system named is A375 (melanoma) cancer cells. Kind of experiment: MTT in vitro cytotoxic activity assay, A375. Type of experiment: cell-based. Conditions: Homo sapiens, A-375; cells exposed for 96 hours; 50% inhibition of cell proliferation; read-out: Cytotoxicity activity IC50, A375 (melanoma). Here is the method:
as §1

Experiment [4] deals with H1299 (lung) cancer cells. Briefly: MTT in vitro cytotoxic activity assay, H1299. Type of experiment: cell-based. Conditions: Homo sapiens, NCI-H1299; cells exposed for 96 hours; 50% inhibition of cell proliferation; read-out: Cytotoxicity activity IC50, H1299 (lung). The procedure: as §1
Experiment [5] has as its system MIAPaCa-2 (pancreas) cancer cells. Kind of experiment: MTT in vitro cytotoxic activity assay, MIAPaCa-2. The experiment is classed as cell-based. Conditions: Homo sapiens, MIA PaCa-2; cells exposed for 96 hours; 50% inhibition of cell proliferation; read-out: Cytotoxicity activity IC50, MIAPaCa-2 (pancreas). Here is the method:
as §1

Experiment [6] relates to HL60 (leukemia) cancer cells. Briefly: MTT in vitro cytotoxic activity assay, HL60. Type of experiment: cell-based. Conditions: Homo sapiens, HL-60; cells exposed for 96 hours; 50% inhibition of cell proliferation; read-out: Cytotoxicity activity IC50, HL60 (leukemia). The procedure: as §1
The test system of experiment [7] is MCF7 (breast) cancer cells. Briefly: MTT in vitro cytotoxic activity assay, MCF7. Conditions: Homo sapiens, cells exposed for 96 hours, 50% inhibition of cell proliferation, read-out: Cytotoxicity activity IC50, MCF7 (breast). Type of experiment: cell-based. Here is the method: as §1
Experiment [8] relates to MDA-MB-231 (breast) cancer cells. Kind of experiment: MTT in vitro cytotoxic activity assay, MDA-MB-231. The experiment is classed as cell-based. Conditions: Homo sapiens, cells exposed for 96 hours, 50% inhibition of cell proliferation, read-out: Cytotoxicity activity IC50, MDA-MB-231 (breast). The procedure: as §1
Experiment [9] has as its target T1, recombinant human CK2 (RRββ-holoenzyme) (Homo sapiens, UniProt P68400).
T1 construct: purchased Millipore
Kind of experiment: CK2 Kinase Assay (33P-ATP, filter plate). Type of experiment: biochemical. Conditions: final ATP concentration 15 μM; 10 min at 30° C.; read-out: protein kinase CK2 IC50. The procedure: CK2 Kinase Assay was conducted using the protocol as described in Pierre F. et al; J. Med. Chem. 2011, 54, 635-654. The tested compounds in aqueous solution were added at a volume of 10 μL to a reaction mixture comprising 10 μL of assay dilution buffer (ADB; 20 mM MOPS, pH 7.2, 25 mM β-glycerol phosphate, 5 mM EGTA, 1 mM sodium orthovanadate, and 1 mM dithiothreitol), 10 μL of substrate peptide (RRRDDDSDDD, dissolved in ADB at a concentration of 1 mM), 10 μL of recombinant human CK2 (RRββ-holoenzyme, 25 ng dissolved in ADB; Millipore). Reactions were initiated by the addition of 10 μL of ATP solution (90% 75 mMMgCl2, 75 μM ATP (final ATP concentration: 15 μM) dissolved in ADB; 10% [γ-33P] ATP (stock 1mCi/100 μL; 3000 Ci/mmol (Perkin-Elmer) and maintained for 10 min at 30° C. The reactions were quenched with 100 μL of 0.75% phosphoric acid and then transferred to and filtered through a phosphor cellulose filter plate (Millipore). After washing each well five times with 0.75% phosphoric acid, the plate was dried under vacuum for 5 min and, following the addition of 15 μL of scintillation fluid to each well, the residual radioactivity was measured using a Wallac luminescence counter. The IC50 values were derived from eight concentrations of test inhibitors.

T1 sequence (P68400 whole entry): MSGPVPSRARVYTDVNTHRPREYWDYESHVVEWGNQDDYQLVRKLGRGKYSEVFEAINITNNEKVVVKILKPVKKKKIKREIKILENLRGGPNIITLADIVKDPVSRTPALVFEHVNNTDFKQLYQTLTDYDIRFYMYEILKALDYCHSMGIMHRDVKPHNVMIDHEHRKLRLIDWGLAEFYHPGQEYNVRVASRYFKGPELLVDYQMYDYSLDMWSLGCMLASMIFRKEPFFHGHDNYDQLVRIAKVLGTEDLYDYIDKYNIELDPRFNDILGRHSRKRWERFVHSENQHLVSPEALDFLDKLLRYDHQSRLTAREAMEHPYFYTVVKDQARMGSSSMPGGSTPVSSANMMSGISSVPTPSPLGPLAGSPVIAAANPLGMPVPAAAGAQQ
T1 sequence (P67870 whole entry partner): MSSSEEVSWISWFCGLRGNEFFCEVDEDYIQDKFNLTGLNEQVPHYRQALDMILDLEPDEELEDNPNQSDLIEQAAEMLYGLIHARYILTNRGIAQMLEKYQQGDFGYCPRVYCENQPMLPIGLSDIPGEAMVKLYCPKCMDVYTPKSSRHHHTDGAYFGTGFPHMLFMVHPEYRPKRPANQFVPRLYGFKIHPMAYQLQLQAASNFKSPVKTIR

As a reminder, the IC50 is the concentration at which inhibition is half-maximal. As for `O=C(O)c1ncn2c1c(Nc1cccc(Cl)c1)nc1ccncc12` [Compound 1, 4-((3-chlorophenyl)amino) imidazo[1,5-a]pyrido[4,3-e]pyrazine-3-carboxylic acid], the half-maximal inhibitory concentration (IC50) in [1] came to 2100 nM; in experiment [2], 1800 nM; in [3] it was 3300 nM; in [4] it was 2500 nM; in experiment [5], 1100 nM; in experiment [6] it was 2600 nM. Also, the IC50 in [7] was determined as 5900 nM; in [8], 5200 nM; in experiment [9], 36 nM.

(Values after patent US12187726B1, “Imidazo[1,5-a]pyrido[4,3-e]pyrazines as CK2 inhibitors” (KING FAISAL UNIVERSITY, priority 2024, dated 2025).)
